# Like-named read-outs stand apart in the source and are kept apart here. Starred links: 1 amine or outer side, 2 acyl side, 3 side chain; linkers in the order of their positions; H or OH if unused. Non-standard residues stand in square brackets, D forms with d. Groups on a side chain read outwards from the residue. No end group written: not given here. *: point of attachment. C20 diacid = O=C(O)CCCCCCCCCCCCCCCCCCC(=O)*; C18 diacid = O=C(O)CCCCCCCCCCCCCCCCC(=O)*; γGlu = O=C(O)[C@H](CCC(=O)[*:2])N[*:1]; εLys = N[C@@H](CCCCN[*:1])C(=O)[*:2]; NMeQ = CN[C@@H](CCC(N)=O)C(=O)O; AEEA = NCCOCCOCC(=O)O; Aib = CC(C)(N)C(=O)O
# Key:
# Assay type in all cases: cell-based
# Settings in all cases: CreLuc reporter gene assay
# [1] = molecular target: T1, hGIPR (Homo sapiens, UniProt P48546); experiment: hGIPR CreLuc reporter gene assay in 0.5% and 100% plasma
# T1 construct: expressed in transfected cells; host or cells: CHO cells carrying a CRE-luciferase reporter gene
# T1 sequence (P48546 22-466): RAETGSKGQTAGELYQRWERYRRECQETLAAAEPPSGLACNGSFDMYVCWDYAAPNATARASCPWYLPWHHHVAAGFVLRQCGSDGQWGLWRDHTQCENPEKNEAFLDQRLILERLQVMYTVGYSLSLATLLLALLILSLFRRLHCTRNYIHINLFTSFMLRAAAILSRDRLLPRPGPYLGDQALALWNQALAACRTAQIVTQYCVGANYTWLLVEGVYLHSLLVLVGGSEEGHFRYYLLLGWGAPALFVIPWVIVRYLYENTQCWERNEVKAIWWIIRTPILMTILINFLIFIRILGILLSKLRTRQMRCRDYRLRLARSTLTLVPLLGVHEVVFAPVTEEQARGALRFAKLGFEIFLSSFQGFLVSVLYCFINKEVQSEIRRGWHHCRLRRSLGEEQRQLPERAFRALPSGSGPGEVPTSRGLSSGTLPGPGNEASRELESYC
# Summary of the method: (§1)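 HEK-293 cells co-expressing GLP-1 or NPY2 receptor and CHO cells expressing GIP receptor, each carrying a CRE-driven luciferase reporter, were stimulated with peptides for 4 hours at 37 °C. Luminescence was read after Bright-Glo addition. EC50 came from 8-point, four-decade curves fitted by variable-slope non-linear regression.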
# [2] = molecular target: T2, hNPY2R (Homo sapiens, UniProt P49146); experiment: hNPY2R CreLuc reporter gene assay in 0.5% and 100% plasma
# T2 construct: expressed in transfected cells; host or cells: HEK-293 cells carrying a CRE-luciferase reporter gene
# T2 sequence (P49146 1-381): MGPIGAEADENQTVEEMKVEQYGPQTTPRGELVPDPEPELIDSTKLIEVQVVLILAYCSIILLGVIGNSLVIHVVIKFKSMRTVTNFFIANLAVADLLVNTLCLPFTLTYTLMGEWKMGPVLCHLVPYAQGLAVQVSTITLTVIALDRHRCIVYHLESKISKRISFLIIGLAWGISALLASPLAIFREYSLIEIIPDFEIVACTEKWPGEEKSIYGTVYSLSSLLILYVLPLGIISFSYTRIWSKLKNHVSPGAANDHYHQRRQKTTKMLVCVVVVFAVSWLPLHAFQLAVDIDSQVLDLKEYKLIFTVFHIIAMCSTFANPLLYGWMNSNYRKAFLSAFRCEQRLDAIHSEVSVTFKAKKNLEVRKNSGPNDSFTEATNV
# Excerpt: Example 1: hGLPR/hGIPR/hNPY2R CreLuc Assay in 0.5% and 100% Plasma
# CHO and HEK-293 recombinant cell lines express a luciferase reporter gene under control of the cAMP responsive element (CRE). As a second recombinant protein the GLP-1 and NPY2 receptors were expressed in the reporter gene HEK cells, and the GIP receptor was expressed in the reporter gene CHO cells, respectively. Stimulation of these recombinant cells with an agonist leads to an increase of intracellular cAMP levels. In the presence of cAMP, the transcription factor CRE binding protein (CREB) binds to the CRE and to the CREB binding protein (CBP), which leads to transcription of the luciferase reporter gene. Peptides upon serial-dilution in 100% DMSO were transferred into 384-well assay plates with 5 μl pre-dispensed assay buffer (1×HBSS, 20 mM HEPES, pH7.4 supplemented with 0.5% human plasma) using acoustic dispensing on a Labcyte ECHO. Cryo-preserved transgenic reporter gene cells were thawed in assay buffer. 20 μl (10.000 cells/well) were added to the plate with the peptides and incubated for 4 hours at 37° C. in a humidified incubator. Following incubation, assay plates are equilibrated to room temperature, followed by addition of 25 μl of Bright-GIo™ Luciferase reagent, incubation at room temperature for 10 minutes and analysis of luminescence (Envision Reader). Concentration response evaluation of compounds was performed with 8 concentrations of peptides (covering four decades). EC50 values were calculated by non-linear regression using sigmoid concentration-response with variable slope. The same assays were run in the presence of 100% plasma with no additional buffer constituents.
# [3] = molecular target: T3, hGLP1R (Homo sapiens, UniProt P43220); experiment: hGLP1R CreLuc reporter gene assay in 0.5% and 100% plasma
# T3 construct: expressed in transfected cells; host or cells: HEK-293 cells carrying a CRE-luciferase reporter gene
# Summary of the method: as §1
# [4] = 0.5% human plasma, read-out: hGIPR 0.5% hP
# [5] = 0.5% human plasma, read-out: hNPY2R 0.5% hP
# [6] = 100% human plasma, read-out: hNPY2R 100% hP
# [7] = 100% human plasma, read-out: hGIPR 100% hP
# [8] = 0.5% human plasma, read-out: hGLP1R 0.5% hP
# [9] = 100% human plasma, read-out: hGLP1R 100% hP
# T3 sequence (P43220 24-463): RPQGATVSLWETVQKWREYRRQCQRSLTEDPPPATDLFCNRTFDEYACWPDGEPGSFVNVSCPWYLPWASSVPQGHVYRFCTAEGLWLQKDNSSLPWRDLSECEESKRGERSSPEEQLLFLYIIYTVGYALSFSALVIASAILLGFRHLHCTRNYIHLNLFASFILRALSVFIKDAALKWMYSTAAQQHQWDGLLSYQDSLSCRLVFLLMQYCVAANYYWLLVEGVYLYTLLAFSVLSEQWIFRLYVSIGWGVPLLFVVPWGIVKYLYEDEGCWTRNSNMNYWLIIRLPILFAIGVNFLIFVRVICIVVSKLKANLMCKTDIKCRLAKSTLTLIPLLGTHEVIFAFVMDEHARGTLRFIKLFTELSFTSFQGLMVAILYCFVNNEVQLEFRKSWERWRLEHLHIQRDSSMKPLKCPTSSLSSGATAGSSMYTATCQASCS
"EC50 [1, 4]","EC50 [2, 5]","EC50 [2, 6]","EC50 [1, 7]","EC50 [3, 8]","EC50 [3, 9]",Substance
0.27 nM,11.1 nM,,,,,"H-Y[Aib]EGTFTSDYSI[Aib]LEKQAQ[Aib]EFVEWLIK([AEEA-AEEA-γGlu-γGlu-γGlu-C18 diacid])GGPESGASLRHYYNWLTRQRY-NH2 [Compound 81, Y-Aib-E-G-T-F-T-S-D-Y-S-I-Aib-L-E-K-Q-A-Q-Aib-E-F-V-E-W-L-I-K(1,3)-GGPESGASLRHYYNWLTRQRY-NH2.C18DA-gGlu-gGlu-gGlu-OEG-OEG(1,2)]"
0.53 nM,12.9 nM,24.6 nM,,,,"H-Y[Aib]EGTFTSDYSI[Aib]LEKQAQ[Aib]AFVQWLIK([εLys-γGlu-γGlu-γGlu-γGlu-γGlu-γGlu-C20 diacid])GGPSEYVSLRHYYNWLTRQRY-NH2 [Compound 78, Y-Aib-E-G-T-F-T-S-D-Y-S-I-Aib-L-E-K-Q-A-Q-Aib-A-F-V-Q-W-L-I-K(1,3)-GGPSEYVSLRHYYNWLTRQRY-NH2.C20DA-gGlu-gGlu-gGlu-gGlu-gGlu-gGlu-eLys(1,2)]"
0.69 nM,16.7 nM,,4.36 nM,,,"H-Y[Aib]EGTFTSDYSI[Aib]LEKQAQ[Aib]AFVEWLIK([εLys-γGlu-γGlu-γGlu-γGlu-γGlu-γGlu-C20 diacid])GGPSEGVSLRHYYNWLTRQRY-NH2 [Compound 241, Y-Aib-E-G-T-F-T-S-D-Y-S-I-Aib-L-E-K-Q-A-Q-Aib-A-F-V-E-W-L-I-K(1,3)-GGPSEGVSLRHYYNWLTRQRY-NH2.C20DA-gGlu-gGlu-gGlu-gGlu-gGlu-gGlu-eLys(1,2)]"
,26.8 nM,,,,,"H-Y[Aib]EGTFTSDYSI[Aib]LE[Aib]KAQ[Aib]EFVEWLIK([εLys-γGlu-γGlu-γGlu-γGlu-γGlu-γGlu-C20 diacid])GGPSSGASLRHYYNWLTRQRY-NH2 [Compound 24, Y-Aib-E-G-T-F-T-S-D-Y-S-I-Aib-L-E-Aib-K-A-Q-Aib-E-F-V-E-W-L-I-K(1,3)-GGPSSGASLRHYYNWLTRQRY-NH2.C20DA-gGlu-gGlu-gGlu-gGlu-gGlu-gGlu-eLys(1,2)]"
0.29 nM,13.7 nM,78.9 nM,,,,"H-Y[Aib]EGTFTSDYSI[Aib]LEKQAQ[Aib]AFVQWLIK([εLys-γGlu-γGlu-γGlu-γGlu-γGlu-C20 diacid])GGPEEPASLRHYYNWLTRQRY-NH2 [Compound 67, Y-Aib-E-G-T-F-T-S-D-Y-S-I-Aib-L-E-K-Q-A-Q-Aib-A-F-V-Q-W-L-I-K(1,3)-GGPEEPASLRHYYNWLTRQRY-NH2.C20DA-gGlu-gGlu-gGlu-gGlu-gGlu-eLys(1,2)]"
0.46 nM,12.8 nM,43.4 nM,2.43 nM,,,"Y[Aib]EGTFTSDYSI[Aib]LEKQAE[Aib]AFVQWLIK([AEEA-AEEA-γGlu-γGlu-γGlu-γGlu-C20 diacid])GGPSEGASLRHYYNWLTRQRY-NH2 [Compound 219, Y-Aib-E-G-T-F-T-S-D-Y-S-I-Aib-L-E-K-Q-A-E-Aib-A-F-V-Q-W-L-I-K(1,3)-GGPSEGASLRHYYNWLTRQRY-NH2.C20DA-gGlu-gGlu-gGlu-gGlu-OEG-OEG(1,2)]"
0.38 nM,19.3 nM,,1.52 nM,,,"H-Y[Aib]EGTFTSDYSI[Aib]LEKQAQ[Aib]EFVEWLIK([AEEA-AEEA-γGlu-γGlu-γGlu-C20 diacid])GGPSEGASLRHYYNWLTRQRY-NH2 [Compound 273, Y-Aib-E-G-T-F-T-S-D-Y-S-I-Aib-L-E-K-Q-A-Q-Aib-E-F-V-E-W-L-I-K(1,3)-GGPSEGASLRHYYNWLTRQRY-NH2.C20DA-gGlu-gGlu-gGlu-OEG-OEG(1,2)]"
0.16 nM,20.6 nM,48.7 nM,0.98 nM,,,"H-Y[Aib]EGTFTSDYSI[Aib]LEKQAE[Aib]AFVEWLIK([AEEA-AEEA-γGlu-γGlu-γGlu-γGlu-C18 diacid])GGPSEGASLRHYYNWLTRQRY-NH2 [Compound 251, Y-Aib-E-G-T-F-T-S-D-Y-S-I-Aib-L-E-K-Q-A-E-Aib-A-F-V-E-W-L-I-K(1,3)-GGPSEGASLRHYYNWLTRQRY-NH2.C18DA-gGlu-gGlu-gGlu-gGlu-OEG-OEG(1,2)]"
0.23 nM,,,,0.41 nM,,"H-Y[Aib]EGTFTSDYSI[Aib]LEKQAQ[Aib]EFVEWLIK([AEEA-γGlu-γGlu-γGlu-C18 diacid])GGPSEGASLRHYYNWLTRQRY-NH2 [Compound 274, Y-Aib-E-G-T-F-T-S-D-Y-S-I-Aib-L-E-K-Q-A-Q-Aib-E-F-V-E-W-L-I-K(1,3)-GGPSEGASLRHYYNWLTRQRY-NH2.C18DA-gGlu-gGlu-gGlu-OEG(1,2)]"
0.29 nM,,,,0.15 nM,2.87 nM,"H-Y[Aib]EGTFTSDYSI[Aib]LEKQAQ[Aib]AFVEWLIK([εLys-γGlu-γGlu-γGlu-γGlu-γGlu-γGlu-C20 diacid])GGPSSGADLRHYLNWLTRQRY-NH2 [Compound 72, Y-Aib-E-G-T-F-T-S-D-Y-S-I-Aib-L-E-K-Q-A-Q-Aib-A-F-V-E-W-L-I-K(1,3)-GGPSSGADLRHYLNWLTRQRY-NH2.C20DA-gGlu-gGlu-gGlu-gGlu-gGlu-gGlu-eLys(1,2)]"
0.14 nM,,,1.15 nM,0.11 nM,1.6 nM,"H-Y[Aib]EGTFTSDYSI[Aib]LEEQAQ[Aib]AFVQWLIK([εLys-AEEA-γGlu-γGlu-γGlu-γGlu-γGlu-C20 diacid])GGPSSGASLRHYYNWLTRQRY-NH2 [Compound 45, Y-Aib-E-G-T-F-T-S-D-Y-S-I-Aib-L-E-E-Q-A-Q-Aib-A-F-V-Q-W-L-I-K(1,3)-GGPSSGASLRHYYNWLTRQRY-NH2.C20DA-gGlu-gGlu-gGlu-gGlu-gGlu-OEG-eLys(1,2)]"
0.51 nM,,,,0.12 nM,,"H-Y[Aib]EGTFTSDYSI[Aib]LEKQAQ[Aib]AFVQWLIK([εLys-γGlu-γGlu-γGlu-γGlu-γGlu-γGlu-C20 diacid])GGPSEGASLRHYYNWLTR[NMeQ]RY-NH2 [Compound 115, Y-Aib-E-G-T-F-T-S-D-Y-S-I-Aib-L-E-K-Q-A-Q-Aib-A-F-V-Q-W-L-I-K(1,3)-G-G-P-S-E-G-A-S-L-R-H-Y-Y-N-W-L-T-R-NMeQ-R-Y-NH2.C20DA-gGlu-gGlu-gGlu-gGlu-gGlu-gGlu-eLys(1,2)]"
0.38 nM,,,,0.44 nM,,"H-Y[Aib]EGTFTSDYSI[Aib]LEKQAE[Aib]AFVEWLIK([γGlu-γGlu-γGlu-γGlu-C20 diacid])GGPSEGASLRHYYNWLTRQRY-NH2 [Compound 280, Y-Aib-E-G-T-F-T-S-D-Y-S-I-Aib-L-E-K-Q-A-E-Aib-A-F-V-E-W-L-I-K(1,3)-GGPSEGASLRHYYNWLTRQRY-NH2.C20DA-gGlu-gGlu-gGlu-gGlu(1,2)]"
0.46 nM,,,1.23 nM,0.14 nM,3.86 nM,"H-Y[Aib]EGTFTSDYSI[Aib]LEKQAQ[Aib]AFVQWLIK([AEEA-AEEA-γGlu-γGlu-γGlu-γGlu-C20 diacid])GGPSEGASLRHYYNWLTRQRY-NH2 [Compound 269, Y-Aib-E-G-T-F-T-S-D-Y-S-I-Aib-L-E-K-Q-A-Q-Aib-A-F-V-Q-W-L-I-K(1,3)-GGPSEGASLRHYYNWLTRQRY-NH2.C20DA-gGlu-gGlu-gGlu-gGlu-OEG-OEG(1,2)]"
